Experimental data published in patent US12486259B2, “FXR agonist having pyrazine structure, and preparation method and use” (JIANGSU TASLY DIYI PHARMACEUTICAL CO., LTD., priority 2020, dated 2025).

System: C57/BL6 mice fed MCD diet
Assay: Pharmacodynamic test in methionine-choline deficient diet (MCD) model of non-alcoholic fatty liver disease
Assay type: in vivo
Conditions: for Weight, 0 week / Food intake, 1 week / Weight, 1 week / Food intake, 2 weeks / Weight, 2 weeks / Food intake, 3 weeks / Weight, 3 weeks / Food intake, 4 weeks / Weight, 4 week / liver weight / liver/body weight / ALT, 3 weeks / AST, 3 weeks / ALT, 4 weeks / AST, 4 weeks / HDL (blood lipid) / LDL (blood lipid) / TC (blood lipid) / TG (blood lipid) / HE score / Sirius red staining area / liver TC / liver TG: MCD mice, obeticholic acid 40 mpk; for Weight, 0 week / Weight, 1 week / Weight, 2 weeks / Weight, 3 weeks / Weight, 4 week: TM compounds 30 mpk, once daily by gavage; for Food intake, 1 week / Food intake, 2 weeks / Food intake, 3 weeks / Food intake, 4 weeks / liver weight / liver/body weight / ALT, 3 weeks / AST, 3 weeks / ALT, 4 weeks / AST, 4 weeks / HDL (blood lipid) / LDL (blood lipid) / TC (blood lipid) / TG (blood lipid) / HE score / Sirius red staining area / liver TC / liver TG: TM 30 mpk; for Food intake, 1 week / Food intake, 2 weeks / Food intake, 3 weeks / Food intake, 4 weeks / ALT, 3 weeks / AST, 3 weeks / ALT, 4 weeks / AST, 4 weeks: gavage; for Food intake, 4 weeks / Weight, 4 week / ALT, 4 weeks / AST, 4 weeks / HE score / Sirius red staining area: 4 weeks; for liver weight / liver/body weight / HDL (blood lipid) / LDL (blood lipid) / TC (blood lipid) / TG (blood lipid) / liver TC / liver TG: after 4 weeks; for ALT, 3 weeks / AST, 3 weeks / ALT, 4 weeks / AST, 4 weeks / HDL (blood lipid) / LDL (blood lipid) / TC (blood lipid) / TG (blood lipid): blood; for HE score: liver pathology score (Table 12 criteria); for Sirius red staining area / liver TC / liver TG: liver; for blood lipid levels (in words) / liver triglyceride and cholesterol content (in words) / liver weight and liver/body weight (in words): after 4 weeks of MCD and compounds treatment; for ALT and AST compared to the model group (in words): three weeks after MCD and compounds treatment
Method: Animal strain: C57/BL6, Animal Grade: SPF Grade, Gender: male, Animal Age: 8 weeks old, Animals Received Date: 2018 Sep. 28, Animal Source: Shanghai Lingchang Biotechnology Co. Ltd., Animal Certificate No: SCXK (Shanghai)2013-0018 2013001836799, Mouse feeding Environment: temperature 20-26° C., humidity 40-70%, 12 hour day and night cycle.
5% Solutol HS15/Normal saline: after Solutol HS15 (polyethylene glycol 15 hydroxystearate solubilizer) is dissolved in a water bath at 37° C., 5 ml of it is dissolved in 100 ml of normal saline, thoroughly stirred for later use.
Obeticholic acid/5% Solutol HS15/Normal saline: 0.15 ml Solutol HS15 is added to accurately weighed 12 mg obeticholic acid to fully dissolve it, and 2.85 ml normal saline is added, vigorously mixed and dissolved by the ultrasound. • TM-01 Group/5% Solutol HS15/Normal saline: 2.5 ml of 6 mg/ml TM-01 suspension is taken, 2.5 ml of 5% Solutol HS15/normal saline is added, and the mixture is mixed well. • TM-02 Group/5% Solutol HS15/Normal saline: 2.5 ml of 6 mg/ml TM-02 suspension is taken, 2.5 ml of 5% Solutol HS15/normal saline is added, and the mixture is mixed well. • TM-06 Group/5% Solutol HS15/Normal saline: 2.5 ml of 6 mg/ml TM-06 suspension is taken, 2.5 ml of 5% Solutol HS15/Normal saline is added, and the mixture is mixed well. • TM-09 Group/5% Solutol HS15/Normal saline: 2.5 ml of 6 mg/ml TM-09 suspension is taken, 2.5 ml of 5% Solutol HS15/Normal saline is added, and the mixture is mixed well.
Menstruum and test compounds are administered by gavage at a dose volume of 10 ml/kg;
After reaching the animal house, 70 8-week-old C57/BL6 mice are fed adaptively and randomly divided into 7 groups according to body weight after the average body weight reaches 23 g. They are given the model feed. The first group receives the control diet MCS and the remaining groups receive the MCD diet, while each group of mice receives compound treatment as follows: • Group 1. Control Group: MCS, menstruum, administered once daily by gavage; • Group 2. Model Group: MCD, menstruum, administered once daily by gavage; • Group 3. Obeticholic acid group: MCD, 40 mpk obeticholic acid, administered once daily by gavage; • Group 4. TM-01 Group: MCD, 30 mpk TM-01, administered once daily by gavage; • Group 5. TM-02 Group: MCD, 30 mpk TM-02, administered once daily by gavage; • Group 6. TM-06 Group: MCD, 30 mpk TM-06, administered once daily by gavage; • Group 7. TM-09 Group: MCD, 30 mpk TM-09, administered once daily by gavage; 2.4 Experimental Methods
Body weight and food intake are measured weekly during the experiment. Twenty-one days after administration, tail tips are bled with microcapillaries for AST, ALT measurements. Twenty-eight days after administration, mice are terminated, hearts are bled, and liver tissues are collected and weighed. One portion is snap frozen with liquid nitrogen for subsequent analysis and the other portion are fixed for pathological analysis.
Mouse blood is centrifuged at 5000 rpm for 10 minutes and supernatants are collected for determination of TG (triglycerides), TC (total cholesterol), HDL (high density lipoprotein), LDL (low density lipoprotein), AST (aspartate aminotransferase) and ALT (alanine aminotransferase).
AST and ALT after administration for three and four weeks are determined according to the instructions of kit. The blood lipid index 4 weeks after administration is sent to Adicon Medical Laboratory Co. Ltd. for detection.
The livers are removed from −80° C., homogenized in PBS (phosphate buffered saline), extracted with chloroform methanol organic phase, and subjected to TC and TG assays using the kit, normalized for protein content.
Four weeks after administration, the mice are anesthetized. The heart is bled, the liver is isolated and weighed. The right lobe is snapfrozen with liquid nitrogen and stored at −80° C. for liver lipid analysis. The left lobe is isolated and fixed in 10% formalin for subsequent HE and Sirius Red staining. […]

Compound | Weight, 0 week [g] | Food intake, 1 week [g] | Weight, 1 week [g] | Food intake, 2 weeks [g] | Weight, 2 weeks [g] | Food intake, 3 weeks [g] | Weight, 3 weeks [g] | Food intake, 4 weeks [g] | Weight, 4 week [g] | liver weight [g] | liver/body weight [%] | ALT, 3 weeks [U/L] | AST, 3 weeks [U/L] | ALT, 4 weeks [U/L] | AST, 4 weeks [U/L] | HDL (blood lipid) [mmol/L] | LDL (blood lipid) [mmol/L] | TC (blood lipid) [mmol/L] | TG (blood lipid) [mmol/L] | HE score | further results
O=C(O)c1cccc(C2CC(O)(c3cnc(OCc4c(-c5c(Cl)cccc5Cl)noc4C4CC4)cn3)C2)c1 (stereo not drawn) [TM-01, 3-(3-(5-(5-cyclopropyl-3-(2,6-dichlorophenyl)isoxazole-4-ylmethoxy)-2-pyrazine)-1-hydroxycyclobutane) benzoic acid] | 23.78 ± 0.47 | 3.011 ± 0.555 | 21.24 ± 0.42 | 2.746 ± 0.466 | 18.49 ± 0.41 | 1.909 ± 0.215 | 16.97 ± 0.38 | 1.697 ± 0.027 | 14.70 ± 0.20 | 0.89 ± 0.05 | 6.32 ± 0.26 | 41.58 ± 10.32 | 53.50 ± 19.62 | 14.28 ± 13.21 | 40.36 ± 26.31 | 0.59 ± 0.11 | 2.61 ± 0.26 | 0.95 ± 0.44 | 0.53 ± 0.10 | 1 | Sirius red staining area: 0.365 ± 0.069 %; liver TC: 34.9 ± 8.2 µmol/g protein; liver TG: 247 ± 54.1 µmol/g protein; blood lipid levels (in words): different reductions in blood lipids; liver triglyceride and cholesterol content (in words): significant lowering effect on liver triglyceride and cholesterol levels; liver weight and liver/body weight (in words): significantly increases mouse liver weight and liver/body weight; ALT and AST compared to the model group (in words): significantly reduced
Cc1cc(C(=O)O)cc(C2CC(O)(c3cnc(OCc4c(-c5c(Cl)cccc5Cl)noc4C(C)C)cn3)C2)c1 (stereo not drawn) [TM-09, 3-(3-(5-((3-(2,6-dichlorophenyl)-5-isopropylisoxazol-4-yl)methoxy)pyrazine-2-yl)-3-hydroxycyclobutyl)-5-methyl benzoic acid] | 23.60 ± 0.29 | 2.364 ± 0.186 | 21.26 ± 0.34 | 2.707 ± 0.187 | 19.29 ± 0.39 | 2.284 ± 0.342 | 17.18 ± 0.31 | 2.109 ± 0.661 | 15.90 ± 0.31 | 0.74 ± 0.04 | 4.98 ± 0.25 | 40.27 ± 21.48 | 45.04 ± 12.08 | 14.30 ± 4.19 | 38.40 ± 4.19 | 0.56 ± 0.02 | 2.52 ± 0.07 | 0.86 ± 0.09 | 0.54 ± 0.04 | 1.1 | Sirius red staining area: 0.392 ± 0.057 %; liver TC: 37.7 ± 3.65 µmol/g protein; liver TG: 232 ± 18.4 µmol/g protein; blood lipid levels (in words): different reductions in blood lipids; liver triglyceride and cholesterol content (in words): significant lowering effect on liver triglyceride and cholesterol levels; liver weight and liver/body weight (in words): significantly increases mouse liver weight and liver/body weight; ALT and AST compared to the model group (in words): significantly reduced
CC(C)c1onc(-c2c(Cl)cccc2Cl)c1COc1cnc(C2(O)CC(c3cccc(C(=O)O)c3)C2)cn1 (stereo not drawn) [TM-06, 3-(3-(5-(5-isopropyl-3-(2,6-dichlorophenyl)isoxazole-4-ylmethoxy)-2-pyrazine)-1-hydroxycyclobutane) benzoic acid] | 23.75 ± 0.27 | 2.356 ± 0.213 | 21.36 ± 0.27 | 2.664 ± 0.194 | 18.29 ± 0.28 | 2.093 ± 0.250 | 16.41 ± 0.25 | 1.932 ± 0.137 | 15.70 ± 0.22 | 0.67 ± 0.03 | 4.23 ± 0.13 | 48.97 ± 26.07 | 52.14 ± 18.73 | 49.13 ± 33.04 | 45.23 ± 13.21 | 0.42 ± 0.06 | 3.01 ± 0.09 | 0.97 ± 0.16 | 0.59 ± 0.02 | 1.6 | Sirius red staining area: 0.421 ± 0.081%; liver TC: 38.2 ± 35 µmol/g protein; liver TG: 304 ± 46.5 µmol/g protein; blood lipid levels (in words): different reductions in blood lipids; liver triglyceride and cholesterol content (in words): different lowering effects; liver weight and liver/body weight (in words): significantly increases mouse liver weight and liver/body weight; ALT and AST compared to the model group (in words): significantly reduced
